Data published in ChEMBL document CHEMBL1151221, “Three new sesquiterpenes from Croton arboreous” (2004).

The compounds below were run on Mus musculus (assay: Antiinflammatory activity against mouse assessed as inhibition TPA-induced ear edema at 0.5 mg/kg).
Assay type: functional
Design: scale not given: the % may be the effect or the level left

Which Activity does the source give for C=C1CC[C@@H](O)[C@]2(C)CC[C@@H](C(C)C)[C@@H](O)[C@@H]12 here?
The Activity was 29.9%.

How did the Activity turn out when CC1=CC[C@@H](O)[C@]2(C)CC[C@H](C(C)C)[C@H](O)[C@@H]12 was run?
The Activity was 28%.

Which Activity does the source give for C=C1CC[C@@H]2[C@H]([C@H]3[C@H]1CC[C@]3(C)O)C2(C)C [SPATHULENOL] here?
Its Activity is 31.5%.
